# Key:
# [1] = target: Matrix metalloproteinase-9 (Homo sapiens, UniProt P14780); assay: Inhibition of human MMP9 catalytic domain (amino acids 107 to 446) using acetyl-Cys(Eu)-Pro-Leu-Gly-Leu-Lys-(QSY7)-Ala-Arg-amide as substrate preincubated for 1 hrs before substrate addition measured after 15 mins by fluorimetry
# [2] = target: 72 kDa type IV collagenase (Homo sapiens, UniProt P08253); assay: Inhibition of full length human MMP2 (amino acids 1 to 660) using acetyl-Cys(Eu)-Pro-Leu-Gly-Leu-Lys-(QSY7)-Ala-Arg-amide as substrate preincubated for 1 hrs before substrate addition measured after 15 mins by fluorimetry
# Homo sapiens [3] = species: Homo sapiens; assay: Selectivity ratio of IC50 for human MMP3 catalytic domain (amino acids 100 to 265) to IC50 for full length human MMP2 (amino acids 1 to 660)
# Interstitial collagenase = target: T1, Interstitial collagenase (Homo sapiens, UniProt P03956); assay: Inhibition of human MMP1 catalytic domain (amino acids 100 to 262) using acetyl-Cys(Eu)-Pro-Leu-Gly-Leu-Lys-(QSY7)-Ala-Arg-amide as substrate preincubated for 1 hrs before substrate addition measured after 15 mins by fluorimetry
# T1 sequence (P03956 whole entry): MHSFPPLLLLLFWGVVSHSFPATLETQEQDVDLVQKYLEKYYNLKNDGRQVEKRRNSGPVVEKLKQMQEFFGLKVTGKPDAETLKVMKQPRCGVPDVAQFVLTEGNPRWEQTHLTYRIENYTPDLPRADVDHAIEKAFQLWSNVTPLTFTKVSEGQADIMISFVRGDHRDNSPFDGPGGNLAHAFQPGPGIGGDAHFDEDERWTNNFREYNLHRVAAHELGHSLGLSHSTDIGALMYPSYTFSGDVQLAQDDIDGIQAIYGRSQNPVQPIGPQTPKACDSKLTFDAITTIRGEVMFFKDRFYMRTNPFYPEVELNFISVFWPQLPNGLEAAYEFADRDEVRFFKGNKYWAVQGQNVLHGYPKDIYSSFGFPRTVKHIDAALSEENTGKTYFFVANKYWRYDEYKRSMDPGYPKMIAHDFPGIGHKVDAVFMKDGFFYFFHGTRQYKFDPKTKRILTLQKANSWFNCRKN
# [4] = Clearance in rat at 0.5 mg/kg, iv; assay type: ADME, organism-based; design: dose 0.5 mg/kg, route intravenous; settings: in vivo
# [5] = target: Voltage-gated inwardly rectifying potassium channel KCNH2 (Homo sapiens, UniProt Q12809); assay: Binding affinity to human Erg at 10 uM
# [6] = Volume of distribution at steady state in rat at 0.5 mg/kg, iv; assay type: ADME, organism-based; design: dose 0.5 mg/kg, route intravenous; settings: in vivo, read-out: Vdss
# CYP3A4 = CYP3A4 (Homo sapiens, UniProt P08684); assay: Inhibition of CYP 3A4 at 1 uM; assay type: ADME
# [7] = Cmax in rat at 0.5 mg/kg, iv; assay type: ADME, organism-based; design: dose 0.5 mg/kg, route intravenous; settings: in vivo
# [8] = (§1) AUC in rat at 0.5 mg/kg, iv; assay type: ADME, organism-based, Plasma; design: dose 0.5 mg/kg, route intravenous; settings: plasma
# Collagenase 3 = Collagenase 3 (Homo sapiens, UniProt P45452); assay: Inhibition of human MMP13 catalytic domain (amino acids 103 to 268) using acetyl-Cys(Eu)-Pro-Leu-Gly-Leu-Lys-(QSY7)-Ala-Arg-amide as substrate preincubated for 1 hrs before substrate addition measured after 15 mins by fluorimetry
# Homo sapiens [9] = species: Homo sapiens; assay: Selectivity ratio of IC50 for human MMP3 catalytic domain (amino acids 100 to 265) to IC50 for human MMP9 catalytic domain (amino acids 107 to 446)
# Salmonella typhimurium = assay: Induction of mutagenicity in Salmonella Typhimurium by AMES test; assay type: toxicity, organism-based; settings: salmonella enterica subsp. enterica serovar typhimurium
# CYP2D6 = CYP2D6 (Homo sapiens, UniProt P10635); assay: Inhibition of CYP 2D6 at 1 uM; assay type: ADME
# [10] = Half life in rat at 0.5 mg/kg, iv; assay type: ADME, organism-based; design: dose 0.5 mg/kg, route intravenous; settings: in vivo
# Stromelysin-1 = Stromelysin-1 (Homo sapiens, UniProt P08254); assay: Inhibition of human MMP3 catalytic domain (amino acids 100 to 265) using acetyl-Cys(Eu)-Pro-Leu-Gly-Leu-Lys-(QSY7)-Ala-Arg-amide as substrate preincubated for 1 hrs before substrate addition measured after 15 mins by fluorimetry
# [11] = target: MMP-2/MMP-9 (Homo sapiens) (UniProt P08253+P14780); assay: Selectivity ratio of IC50 for full length human MMP2 (amino acids 1 to 660) to IC50 for human MMP9 catalytic domain (amino acids 107 to 446)
# [12] = Cmax in mouse at 10 mg/kg, po; assay type: ADME, organism-based; design: dose 10 mg/kg, route oral; settings: in vivo
# [13] = Half life in mouse at 10 mg/kg, po; assay type: ADME, organism-based; design: dose 10 mg/kg, route oral; settings: in vivo
# Rattus norvegicus = assay: as §1; assay type: ADME, organism-based, Plasma; design: dose 0.5 mg/kg, route intravenous; settings: in vivo
# Chain of 72 kDa type IV collagenase (P08253 whole entry, the tested form may be a part): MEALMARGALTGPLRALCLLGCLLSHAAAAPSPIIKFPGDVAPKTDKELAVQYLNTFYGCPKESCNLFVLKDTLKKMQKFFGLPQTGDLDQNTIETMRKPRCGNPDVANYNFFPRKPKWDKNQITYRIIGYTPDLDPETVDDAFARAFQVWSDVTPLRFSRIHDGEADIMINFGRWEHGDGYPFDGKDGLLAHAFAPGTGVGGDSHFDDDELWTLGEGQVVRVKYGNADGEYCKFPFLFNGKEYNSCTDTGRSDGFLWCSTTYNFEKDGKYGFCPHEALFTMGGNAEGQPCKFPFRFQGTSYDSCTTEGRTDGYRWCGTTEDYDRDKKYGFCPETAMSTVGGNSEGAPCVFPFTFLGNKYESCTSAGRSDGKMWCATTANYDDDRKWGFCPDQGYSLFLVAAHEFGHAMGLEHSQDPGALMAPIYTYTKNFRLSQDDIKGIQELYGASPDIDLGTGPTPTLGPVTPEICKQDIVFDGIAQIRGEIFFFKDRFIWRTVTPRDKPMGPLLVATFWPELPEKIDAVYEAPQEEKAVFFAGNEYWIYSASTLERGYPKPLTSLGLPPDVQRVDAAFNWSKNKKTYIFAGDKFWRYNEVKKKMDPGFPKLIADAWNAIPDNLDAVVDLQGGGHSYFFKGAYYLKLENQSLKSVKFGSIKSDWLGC
# Chain of Stromelysin-1 (P08254 whole entry, the tested form may be a part): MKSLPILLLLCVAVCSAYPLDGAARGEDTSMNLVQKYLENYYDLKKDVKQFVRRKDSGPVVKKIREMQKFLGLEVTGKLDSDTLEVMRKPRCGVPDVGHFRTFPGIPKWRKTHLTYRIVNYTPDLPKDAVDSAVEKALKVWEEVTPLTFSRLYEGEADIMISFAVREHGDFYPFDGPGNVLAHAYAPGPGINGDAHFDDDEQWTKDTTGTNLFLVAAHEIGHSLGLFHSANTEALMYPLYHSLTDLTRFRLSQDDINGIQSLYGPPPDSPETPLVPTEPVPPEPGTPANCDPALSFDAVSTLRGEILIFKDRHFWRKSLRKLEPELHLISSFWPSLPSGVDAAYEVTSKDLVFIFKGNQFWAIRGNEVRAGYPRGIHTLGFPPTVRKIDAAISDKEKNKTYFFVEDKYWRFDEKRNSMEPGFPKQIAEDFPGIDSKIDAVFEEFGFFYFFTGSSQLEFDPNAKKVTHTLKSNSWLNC
# Chain of Matrix metalloproteinase-9 (P14780 whole entry, the tested form may be a part): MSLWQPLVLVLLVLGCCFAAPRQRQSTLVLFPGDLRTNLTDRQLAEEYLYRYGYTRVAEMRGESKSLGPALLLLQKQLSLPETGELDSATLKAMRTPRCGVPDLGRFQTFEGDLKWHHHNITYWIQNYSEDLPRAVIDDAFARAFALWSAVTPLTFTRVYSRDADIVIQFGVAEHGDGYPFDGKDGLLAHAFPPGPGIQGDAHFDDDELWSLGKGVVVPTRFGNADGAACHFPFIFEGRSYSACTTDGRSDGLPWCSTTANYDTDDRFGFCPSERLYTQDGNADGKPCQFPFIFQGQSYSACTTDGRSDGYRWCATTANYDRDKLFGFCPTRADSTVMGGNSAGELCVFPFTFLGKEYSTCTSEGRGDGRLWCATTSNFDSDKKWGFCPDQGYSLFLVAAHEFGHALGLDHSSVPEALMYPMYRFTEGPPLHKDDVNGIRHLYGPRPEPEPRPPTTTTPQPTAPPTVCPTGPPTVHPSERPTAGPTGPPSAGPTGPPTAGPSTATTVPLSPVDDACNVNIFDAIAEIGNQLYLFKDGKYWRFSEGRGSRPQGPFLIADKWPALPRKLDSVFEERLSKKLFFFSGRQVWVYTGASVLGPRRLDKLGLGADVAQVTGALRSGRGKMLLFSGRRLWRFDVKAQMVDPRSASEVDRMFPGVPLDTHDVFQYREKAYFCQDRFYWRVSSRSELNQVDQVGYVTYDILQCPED
# Chain of CYP3A4 (P08684 whole entry): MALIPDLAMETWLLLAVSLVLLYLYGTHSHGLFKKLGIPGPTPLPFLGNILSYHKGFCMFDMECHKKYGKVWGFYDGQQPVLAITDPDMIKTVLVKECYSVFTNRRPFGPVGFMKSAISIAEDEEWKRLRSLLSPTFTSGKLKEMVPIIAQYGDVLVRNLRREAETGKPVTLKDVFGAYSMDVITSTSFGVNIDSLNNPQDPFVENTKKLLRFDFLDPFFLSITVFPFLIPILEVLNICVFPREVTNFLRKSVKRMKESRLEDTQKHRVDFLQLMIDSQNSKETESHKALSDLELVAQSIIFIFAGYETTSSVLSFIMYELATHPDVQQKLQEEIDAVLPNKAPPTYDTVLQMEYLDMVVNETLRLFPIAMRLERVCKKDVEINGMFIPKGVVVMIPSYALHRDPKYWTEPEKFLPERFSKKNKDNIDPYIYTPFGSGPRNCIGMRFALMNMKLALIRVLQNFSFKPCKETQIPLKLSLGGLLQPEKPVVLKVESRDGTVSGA
# Chain of CYP2D6 (P10635 whole entry): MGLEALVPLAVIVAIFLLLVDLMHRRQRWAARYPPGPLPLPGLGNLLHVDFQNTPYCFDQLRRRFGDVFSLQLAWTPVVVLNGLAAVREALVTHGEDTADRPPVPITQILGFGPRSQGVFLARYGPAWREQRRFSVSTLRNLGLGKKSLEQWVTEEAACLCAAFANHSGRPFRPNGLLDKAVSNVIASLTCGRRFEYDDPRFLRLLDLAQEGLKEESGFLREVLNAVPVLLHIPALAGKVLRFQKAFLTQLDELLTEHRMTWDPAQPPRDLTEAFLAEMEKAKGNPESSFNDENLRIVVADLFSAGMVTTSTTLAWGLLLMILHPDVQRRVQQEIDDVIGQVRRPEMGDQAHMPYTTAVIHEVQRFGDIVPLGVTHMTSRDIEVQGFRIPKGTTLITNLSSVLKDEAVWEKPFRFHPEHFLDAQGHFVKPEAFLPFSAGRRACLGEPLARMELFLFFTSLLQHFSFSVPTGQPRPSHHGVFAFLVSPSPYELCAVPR
# Chain of Voltage-gated inwardly rectifying potassium channel KCNH2 (Q12809 whole entry): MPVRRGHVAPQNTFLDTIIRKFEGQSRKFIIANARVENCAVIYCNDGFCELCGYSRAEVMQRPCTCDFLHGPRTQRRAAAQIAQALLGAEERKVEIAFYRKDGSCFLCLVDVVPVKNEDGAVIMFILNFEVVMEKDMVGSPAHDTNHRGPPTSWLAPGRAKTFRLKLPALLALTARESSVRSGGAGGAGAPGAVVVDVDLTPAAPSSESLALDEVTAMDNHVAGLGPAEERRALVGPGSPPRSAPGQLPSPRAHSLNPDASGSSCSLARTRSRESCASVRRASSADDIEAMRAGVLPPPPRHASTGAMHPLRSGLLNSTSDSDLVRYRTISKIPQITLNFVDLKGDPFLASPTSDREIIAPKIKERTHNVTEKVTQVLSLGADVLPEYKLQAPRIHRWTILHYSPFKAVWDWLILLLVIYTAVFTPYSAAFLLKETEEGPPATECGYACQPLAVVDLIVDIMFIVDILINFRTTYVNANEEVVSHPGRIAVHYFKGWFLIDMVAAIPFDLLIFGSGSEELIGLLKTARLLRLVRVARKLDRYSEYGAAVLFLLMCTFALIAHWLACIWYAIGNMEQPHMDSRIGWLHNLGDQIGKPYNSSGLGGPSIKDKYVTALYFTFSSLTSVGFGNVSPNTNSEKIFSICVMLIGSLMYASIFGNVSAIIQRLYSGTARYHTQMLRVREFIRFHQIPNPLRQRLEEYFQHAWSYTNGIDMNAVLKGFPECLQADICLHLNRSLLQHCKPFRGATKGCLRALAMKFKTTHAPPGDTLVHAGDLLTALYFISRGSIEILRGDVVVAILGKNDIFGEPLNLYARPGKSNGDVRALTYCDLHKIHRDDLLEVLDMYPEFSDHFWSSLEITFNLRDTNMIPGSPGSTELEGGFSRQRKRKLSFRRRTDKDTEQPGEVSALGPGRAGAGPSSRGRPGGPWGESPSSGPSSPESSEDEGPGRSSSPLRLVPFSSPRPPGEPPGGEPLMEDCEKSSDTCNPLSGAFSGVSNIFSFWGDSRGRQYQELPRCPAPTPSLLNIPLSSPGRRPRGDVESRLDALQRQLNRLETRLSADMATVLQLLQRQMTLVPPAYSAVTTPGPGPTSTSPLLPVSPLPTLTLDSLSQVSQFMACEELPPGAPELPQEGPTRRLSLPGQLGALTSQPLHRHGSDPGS
smiles,measurement,setting,value
O=C1NCC=CC[C@H]1NS(=O)(=O)c1ccc(Oc2ccc(Cl)cc2)cc1,IC50,[1],> 1000 nM
same,IC50,[2],> 1000 nM
O=C1[C@H](NS(=O)(=O)c2ccc(-c3ccc(Cl)cc3)s2)CC=CCN1O,IC50,[1],16 nM
same,IC50,[2],11 nM
O=C1[C@H](NS(=O)(=O)c2ccc(Oc3ccccc3)cc2)CC=CCN1O,IC50,[1],2 nM
same,IC50,[2],1 nM
O=C1[C@H](N(CCN2CCOCC2)S(=O)(=O)c2ccc(-c3ccc(Cl)cc3)s2)CC=CCN1O,IC50,[1],17 nM
same,IC50,[2],16 nM
O=C1[C@H](NS(=O)(=O)c2ccc(Oc3ccc(Cl)cc3)cc2)CC=CCN1O,Ratio IC50,Homo sapiens [3],100
same,IC50,Interstitial collagenase,> 1000 nM
same,clearance,[4],7 mL/min/kg
same,Activity,[5],< 50%
same,Vd,[6],3.3 L/kg
same,IC50,[1],0.58 nM
same,inhibition at 1 µM,CYP3A4,< 50%
same,Cmax,[7],4.6 µM
same,AUC,[8],1230 ng·h/mL
same,IC50,Collagenase 3,0.4 nM
same,Ratio IC50,Homo sapiens [9],100
same,Activity,Salmonella typhimurium,Non-toxic
same,inhibition at 1 µM,CYP2D6,< 50%
same,half-life,[10],14 h
same,IC50,[2],0.57 nM
same,IC50,Stromelysin-1,86 nM
O=C(N[C@@H]1CC=CCN(O)C1=O)c1ccc(Oc2ccc(Cl)cc2)cc1,IC50,[1],5090 nM
same,IC50,[2],2320 nM
O=C1[C@H](N(CCN2CCCCC2)S(=O)(=O)c2ccc(Oc3ccc(Cl)cc3)cc2)CC=CCN1O,Ratio IC50,[11],2
O=C1[C@@H](NS(=O)(=O)c2ccc(Oc3ccc(Cl)cc3)cc2)CC=CCN1O,IC50,[1],1120 nM
same,IC50,[2],1600 nM
CN1CCN(CCN([C@@H]2CC=CCN(O)C2=O)S(=O)(=O)c2ccc(Oc3ccc(Cl)cc3)cc2)CC1,Ratio IC50,[11],2
O=C1[C@H](NS(=O)(=O)c2ccc(Oc3ccc(C(F)(F)F)cc3)cc2)CC=CCN1O,IC50,[1],2 nM
same,IC50,[2],2 nM
CC1=CC[C@@H](NS(=O)(=O)c2ccc(Oc3ccc(Cl)cc3)cc2)C(=O)N(O)C1,IC50,[1],1.3 nM
same,IC50,[2],2 nM
O=C1[C@H](NS(=O)(=O)c2ccc(Oc3ccncc3)cc2)CC=CCN1O,IC50,[1],12 nM
same,IC50,[2],3 nM
Cc1ccc(-c2ccc(S(=O)(=O)N(CCN3CCOCC3)[C@@H]3CC=CCN(O)C3=O)s2)cc1,IC50,[1],11 nM
same,IC50,[2],7 nM
COc1ccc(-c2ccc(S(=O)(=O)N[C@@H]3CC=CCN(O)C3=O)s2)cc1,Ratio IC50,Homo sapiens [3],100
same,IC50,Interstitial collagenase,> 1000 nM
same,IC50,[1],11 nM
same,IC50,Collagenase 3,3 nM
same,Ratio IC50,Homo sapiens [9],100
same,IC50,Stromelysin-1,493 nM
O=C1[C@H](NS(=O)(=O)c2ccc(Oc3ccc(Cl)cc3)cc2)CC=C(CN2CCOCC2)CN1O,Ratio IC50,Homo sapiens [3],100
same,IC50,Interstitial collagenase,> 1000 nM
same,IC50,[1],0.46 nM
same,IC50,Collagenase 3,0.2 nM
same,Ratio IC50,Homo sapiens [9],100
same,IC50,[2],0.53 nM
same,IC50,Stromelysin-1,39 nM
Cc1ccc(-c2ccc(S(=O)(=O)N[C@@H]3CC=CCN(O)C3=O)s2)cc1,IC50,[1],9 nM
same,IC50,[2],4 nM
Cc1ccc(C#Cc2ccc(S(=O)(=O)N(CCN3CCOCC3)[C@@H]3CC=CCN(O)C3=O)s2)cc1,Ratio IC50,[11],2
same,IC50,[1],0.8 nM
same,IC50,[2],2.4 nM
COc1ccc(Oc2ccc(S(=O)(=O)N[C@@H]3CC=CCN(O)C3=O)cc2)cc1,IC50,[1],1 nM
same,IC50,[2],2 nM
O=C1[C@H](NS(=O)(=O)c2ccc(Oc3ccc(Cl)cc3)cc2)CCCCN1O,IC50,[1],5.9 nM
same,IC50,[2],3.7 nM
O=C1[C@H](NS(=O)(=O)c2ccc(-c3ccc(Cl)cc3)cc2)CC=CCN1O,IC50,[1],1510 nM
same,IC50,[2],85 nM
O=C1[C@H](N(CCN2CCOCC2)S(=O)(=O)c2ccc(Oc3ccc(Cl)cc3)cc2)CC=CCN1O,Ratio IC50,Homo sapiens [3],100
same,IC50,Interstitial collagenase,> 1000 nM
same,Activity,[5],< 50%
same,Vd,[6],1.4 L/kg
same,Ratio IC50,[11],2
same,IC50,[1],0.22 nM
same,Cmax,[12],38.3 µM
same,inhibition at 1 µM,CYP3A4,< 50%
same,half-life,[13],1 h
same,Cmax,[7],4.4 µM
same,AUC,Rattus norvegicus,1831 ng·h/mL
same,IC50,Collagenase 3,0.7 nM
same,Ratio IC50,Homo sapiens [9],100
same,Activity,Salmonella typhimurium,Non-toxic
same,inhibition at 1 µM,CYP2D6,< 50%
same,half-life,[10],2 h
same,IC50,[2],0.39 nM
same,IC50,Stromelysin-1,90 nM

# Reference: ChEMBL document CHEMBL1914289, “Discovery of novel Cobactin-T based matrix metalloproteinase inhibitors via a ring closing metathesis strategy” (Bioorg Med Chem Lett, 2011)
